The results in this text go back to patent publication US20150038545A1, “HYDROXYPHENYL PYRROLE COMPOUNDS CONTAINING AN HYDROXAMIC ACID AS HDAC INHIBITORS AND MEDICINAL APPLICATIONS THEREOF” (UNIVERSIDAD DEL PAÍS VASCO, priority 2011, published 2015).

Common to all, as to assay type: cell-based, Human
For one assay, the system named is HT-29. Put plainly: Cancer cell growth inhibition (CellTiter-Glo), HT-29. The conditions noted are these: Homo sapiens; Colorectal Cancer, HT-29, 72 h treatment. On the procedure:
(§1) Cell culture-based assays were used to evaluate the ability of compounds of the invention to inhibit cancer cell growth.
(§2) Cells were obtained from the American Type Culture Collection (ATCC). Cells were cultured at 37° C. with 5% CO2 in the appropriate growth medium (see table below), and harvested respectively during the logarithmic growth period and counted with hemocytometer. The cell viability was examined by trypan blue exclusion. Cell concentrations were adjusted to 5.56×10^4 cells/ml with respective medium.
(§3) Stock solutions of test compounds and positive drugs Doxorubicin (Zhejiang, Haizheng, China), Cisplatin (Nanjing Zhiyao, China) and Mitomycin (Zhejiang, Haizheng, China) were prepared in dimethyl sulphoxide (DMSO) or PBS at 20 mM.
(§4) In order to determine the IC50 for each compound, experiments were carried out in 96-well plates and the cell lines seeded at a density of 5,000 cells/well. […] All treatments were performed in triplicate. 10 μl of drug solution was added to each well and incubated for 72 hours. At the end of the incubation, 100 μl of the CellTiter-Glo Reagent were added to each well and the contents were mixed for 2 munites on an orbital shaker to induce cell lysis. The plate was incubated at room temperature for 10 minutes to stabilize luminiscent signal, and luminiscent was recorded. […] In order to calculate IC50 values, dose-responsive curves were fitted using nonlinear regression model with a sigmoidal dose response.
On the technique in general: Cellular ATP, detected with luciferase, serves as a proxy for viable cell number.

For the next assay, the system named is Hep3B. The assay is described as follows: Cancer cell growth inhibition (CellTiter-Glo), Hep3B. The conditions noted are these: Homo sapiens, Liver Cancer, 72 h treatment. How it is done:
as §1, §2, §3, §4

The next assay has as its system A375. Put plainly: Cancer cell growth inhibition (CellTiter-Glo), A375. The conditions noted are these: Homo sapiens, A-375; Melanoma, A375, 72 h treatment. How it is done:
as §1, §2, §3, §4

The subject of a further assay is OVCAR3. The assay is described as follows: Cancer cell growth inhibition (CellTiter-Glo), OVCAR3. The conditions noted are these: Homo sapiens, OVCAR-3; Ovarian Cancer, OVCAR3, 72 h treatment. On the procedure:
as §1, §2, §3, §4

For orientation: IC50 means the point on the concentration scale where inhibition reaches its midpoint. Low readings indicate greater potency in that assay, high ones weaker potency in that assay. Consider `O=C(CCCCCNC(=O)c1[nH]c(-c2ccc(O)cc2)cc1-c1ccoc1)NO` [Example 5, 3-(3-furyl)-N-(5-(hydroxycarbamoyl)pentyl)-5-(4-hydroxy-phenyl)-1H-pyrrole-2-carboxamide], for which the IC50 amounted to 3.45 µM in the assay with HT-29, 1.01 µM in the assay on Hep3B, 3.64 µM in the assay with A375 and 1.05 µM with OVCAR3.

Regarding `O=C(CCCCCNC(=O)c1[nH]c(-c2ccc(O)cc2)cc1-c1ccsc1)NO` [Example 6, N-(5-(hydroxycarbamoyl)pentyl)-5-(4-hydroxyphenyl)-3-(3-thienyl)-1H-pyrrole-2-carboxamide], the IC50 with HT-29 stood at 3.64 µM; with Hep3B it was 0.89 µM; in the assay on A375, 3.2 µM; with OVCAR3, 1.74 µM.

Consider `O=C(CCCCCNC(=O)c1[nH]c(-c2ccccc2)cc1-c1ccc(O)cc1)NO` [Example 1, N-(6-(hydroxyamino)-6-oxohexyl)-3-(4-hydroxyphenyl)-5-phenyl-1H-pyrrole-2-carboxamide], for which the IC50 in the assay on HT-29 was 1.42 µM; in the assay on Hep3B, 1.61 µM; in the assay with A375, 2.05 µM; in the assay on OVCAR3 it was 3.3 µM.

Take `O=C(CCCCCNC(=O)c1[nH]c(-c2ccc(O)cc2)cc1-c1ccccc1)NO` [Example 2, N-(6-(hydroxyamino)-6-oxohexyl)-5-(4-hydroxyphenyl)-3-phenyl-1H-pyrrole-2-carboxamide]: the IC50 was determined as 4.04 µM in the assay on HT-29, 1.6 µM in the assay on Hep3B, 4.07 µM with A375 and 3.34 µM with OVCAR3.
